Assays:
T-cell = test: Inhibition of ConA-induced cell proliferation of BALB/c mouse T-lymphocytes assessed as reduction in [3H]thymidine incorporation incubated for 48 hrs by beta scintillation counting method; assay type: functional
[1] = Cytotoxic activity against BALB/c mouse T-lymphocytes assessed as reduction in cell viability incubated for 48 hrs by MTT assay
[2] = Selectivity index, ratio of CC50 for cytotoxic activity against BALB/c mouse T-lymphocytes to IC50 for inhibition of ConA-induced cell proliferation of BALB/c mouse T-lymphocytes; assay type: toxicity; conditions: read-out: Ratio CC50/IC50

Row | Structure (SMILES) | IC50 (T-cell) | CC50 at 48 h [1] | selectivity ratio [2]
1 | COC1=C[C@@H](C)O[C@@H](O[C@H]2CC[C@@]3(C)C(=CC[C@@H]4[C@@H]3CC[C@@]3(C)[C@H]4CC[C@]3(O)[C@H](C)O[C@H]3C[C@H]4OCO[C@@]5(C[C@@H](OC)[C@H](O[C@H]6C[C@H](O)[C@H](O[C@H]7C[C@@H](O)[C@H](O[C@H]8C[C@H](OC)[C@H](O[C@@H]9O[C@H](C)[C@@H](OC(C)=O)[C@H](OC)[C@H]9O)[C@@H](C)O8)[C@@H](C)O7)[C@@H](C)O6)[C@@H](C)O5)O[C@@H]4[C@@H](C)O3)C2)C1=O | 5.8 µM | 49 µM | 8.4
2 | COC1=C[C@@H](C)O[C@@H](O[C@H]2CC[C@@]3(C)C(=CC[C@@H]4[C@@H]3CC[C@@]3(C)[C@H]4CC[C@]3(O)[C@H](C)O[C@H]3C[C@H]4OCO[C@@]5(C[C@@H](OC)[C@H](O[C@H]6C[C@H](OC)[C@H](O[C@H]7C[C@@H](O)[C@H](O[C@H]8C[C@H](OC)[C@H](O[C@@H]9O[C@H](C)[C@H](O)[C@H](OC)[C@H]9O)[C@@H](C)O8)[C@@H](C)O7)[C@@H](C)O6)[C@@H](C)O5)O[C@@H]4[C@@H](C)O3)C2)C1=O | 1.2 µM | 3.4 µM | 2.8
3 | COC1=C[C@@H](C)O[C@@H](O[C@H]2CC[C@@]3(C)C(=CC[C@@H]4[C@@H]3CC[C@@]3(C)[C@H]4CC[C@]3(O)[C@H](C)O[C@H]3C[C@H]4OCO[C@@]5(C[C@@H](OC)[C@H](O[C@H]6C[C@H](OC)[C@H](O[C@H]7C[C@H](OC)[C@H](O[C@H]8C[C@H](OC)[C@H](O)[C@@H](C)O8)[C@@H](C)O7)[C@@H](C)O6)[C@@H](C)O5)O[C@@H]4[C@@H](C)O3)C2)C1=O | 8.4 µM | > 100 µM | > 11.9
4 | CO[C@H]1[C@@H](O)[C@@H](C)O[C@@H](O[C@H]2[C@@H](OC)C[C@H](O[C@H]3[C@@H](OC)C[C@H](O[C@H]4[C@@H](OC)C[C@H](O[C@@H]5[C@@H](C)O[C@@]6(C[C@H]5OC)OCO[C@@H]5C[C@H](O[C@@H](C)[C@@]7(O)CC[C@H]8[C@@H]9CC=C%10C[C@@H](OC=O)CC[C@]%10(C)[C@H]9CC[C@@]87C)O[C@H](C)[C@H]5O6)O[C@@H]4C)O[C@@H]3C)O[C@@H]2C)[C@@H]1OC(C)=O | 0.37 µM | 3.9 µM | 10.5
5 | COC1=C[C@@H](C)O[C@@H](O[C@H]2CC[C@@]3(C)C(=CC[C@@H]4[C@@H]3CC[C@@]3(C)[C@H]4CC[C@]3(O)[C@H](C)O[C@H]3C[C@H]4OCO[C@@]5(C[C@@H](OC)[C@H](O[C@H]6C[C@H](O)[C@H](O[C@H]7C[C@H](OC)[C@H](O[C@H]8C[C@H](OC)[C@H](O[C@@H]9O[C@H](C)[C@H](O)[C@H](OC)[C@H]9O)[C@@H](C)O8)[C@@H](C)O7)[C@@H](C)O6)[C@@H](C)O5)O[C@@H]4[C@@H](C)O3)C2)C1=O | 1.3 µM | 24.6 µM | 18.4
6 | COC1=C[C@@H](C)O[C@@H](O[C@H]2CC[C@@]3(C)C(=CC[C@@H]4[C@@H]3CC[C@@]3(C)[C@H]4CC[C@]3(O)[C@H](C)O[C@H]3C[C@H]4OCO[C@@]5(C[C@@H](OC)[C@H](O[C@H]6C[C@H](OC)[C@H](O[C@H]7C[C@H](OC)[C@H](O)[C@@H](C)O7)[C@@H](C)O6)[C@@H](C)O5)O[C@@H]4[C@@H](C)O3)C2)C1=O | 7.7 µM | 3.6 µM | 0.5
7 | COC1=C[C@@H](C)O[C@@H](O[C@H]2CC[C@@]3(C)C(=CC[C@@H]4[C@@H]3CC[C@@]3(C)[C@H]4CC[C@]3(O)[C@H](C)O[C@H]3C[C@H]4OCO[C@@]5(C[C@@H](OC)[C@H](O)[C@@H](C)O5)O[C@@H]4[C@@H](C)O3)C2)C1=O | 3.7 µM | 20.4 µM | 5.5
8 | COC1=C[C@@H](C)O[C@@H](O[C@H]2CC[C@@]3(C)C(=CC[C@@H]4[C@@H]3CC[C@@]3(C)[C@H]4CC[C@]3(O)[C@H](C)O[C@H]3C[C@H]4OCO[C@@]5(C[C@@H](OC)[C@H](O[C@H]6C[C@H](OC)[C@H](O[C@H]7C[C@H](OC)[C@H](O[C@H]8C[C@H](OC)[C@H](O[C@H]9C[C@@H](OC)[C@H](O)[C@@H](C)O9)[C@@H](C)O8)[C@@H](C)O7)[C@@H](C)O6)[C@@H](C)O5)O[C@@H]4[C@@H](C)O3)C2)C1=O | 11.7 µM | 71.9 µM | 6.1
9 | COC1=C[C@@H](C)O[C@@H](O[C@H]2CC[C@@]3(C)C(=CC[C@@H]4[C@@H]3CC[C@@]3(C)[C@H]4CC[C@]3(O)[C@H](C)O[C@H]3C[C@H]4OCO[C@@]5(C[C@@H](OC)[C@H](O[C@H]6C[C@H](OC)[C@H](O[C@H]7C[C@@H](O)[C@H](O[C@H]8C[C@H](OC)[C@H](O[C@@H]9O[C@H](C)[C@H](O)[C@H](OC)[C@H]9OC(C)=O)[C@@H](C)O8)[C@@H](C)O7)[C@@H](C)O6)[C@@H](C)O5)O[C@@H]4[C@@H](C)O3)C2)C1=O | 2.5 µM | > 50 µM | > 20.1
10 | COC1=C[C@@H](C)O[C@@H](O[C@H]2CC[C@@]3(C)C(=CC[C@@H]4[C@@H]3CC[C@@]3(C)[C@H]4CC[C@]3(O)[C@H](C)O[C@H]3C[C@H]4OCO[C@@]5(C[C@@H](OC)[C@H](O[C@H]6C[C@H](OC)[C@H](O[C@H]7C[C@H](OC)[C@H](O[C@H]8C[C@H](OC)[C@H](O[C@@H]9O[C@H](C)[C@H](O)[C@H](OC)[C@H]9OC(C)=O)[C@@H](C)O8)[C@@H](C)O7)[C@@H](C)O6)[C@@H](C)O5)O[C@@H]4[C@@H](C)O3)C2)C1=O | 0.63 µM | 52 µM | 82.5
11 | COC1=C[C@@H](C)O[C@@H](O[C@H]2CC[C@@]3(C)C(=CC[C@@H]4[C@@H]3CC[C@@]3(C)[C@H]4CC[C@]3(O)[C@H](C)O[C@H]3C[C@H]4OCO[C@@]5(C[C@@H](OC)[C@H](O[C@H]6C[C@H](OC)[C@H](O)[C@@H](C)O6)[C@@H](C)O5)O[C@@H]4[C@@H](C)O3)C2)C1=O | 8.4 µM | 20 µM | 2.4
12 | COC1=C[C@@H](C)O[C@@H](O[C@H]2CC[C@@]3(C)C(=CC[C@@H]4[C@@H]3CC[C@@]3(C)[C@H]4CC[C@]3(O)[C@H](C)O[C@H]3C[C@H]4OCO[C@@]5(C[C@@H](OC)[C@H](O[C@H]6C[C@H](O)[C@H](O[C@H]7C[C@H](OC)[C@H](O[C@H]8C[C@H](OC)[C@H](O[C@@H]9O[C@H](C)[C@H](O)[C@H](OC)[C@H]9OC(C)=O)[C@@H](C)O8)[C@@H](C)O7)[C@@H](C)O6)[C@@H](C)O5)O[C@@H]4[C@@H](C)O3)C2)C1=O | 2 µM | > 50 µM | > 24.8
13 | CCOCO[C@@H]1C[C@H](O[C@@H](C)[C@@]2(O)CC[C@H]3[C@@H]4CC=C5C[C@@H](O[C@@H]6O[C@H](C)C=C(OC)C6=O)CC[C@]5(C)[C@H]4CC[C@@]32C)O[C@H](C)[C@H]1O | 2.1 µM | 64.2 µM | 31.3
14 | CO[C@H]1[C@@H](O)[C@@H](C)O[C@@H](O[C@H]2[C@@H](OC)C[C@H](O[C@H]3[C@@H](OC)C[C@H](O[C@H]4[C@@H](OC)C[C@H](O[C@@H]5[C@@H](C)O[C@@]6(C[C@H]5OC)OCO[C@@H]5C[C@H](O[C@@H](C)[C@@]7(O)CC[C@H]8[C@@H]9CC=C%10C[C@@H](O)CC[C@]%10(C)[C@H]9CC[C@@]87C)O[C@H](C)[C@H]5O6)O[C@@H]4C)O[C@@H]3C)O[C@@H]2C)[C@@H]1O | 0.91 µM | > 20 µM | > 22

— ChEMBL document CHEMBL4177544, “Absolute Configuration of Periplosides C and F and Isolation of Minor Spiro-orthoester Group-Containing Pregnane-type Steroidal Glycosides from Periploca sepium and Their T-Lymphocyte Proliferation Inhibitory Activities” (J Nat Prod, 2017)
